From PMC12677653, “Inhibition of Tumor Lipogenesis and Growth by Peptide‐Based Targeting of SREBP Activation” (Advanced Science, 2025)

What was measured:
[1] = tested on: SREBP1/SREBP2 target genes; assay: Quantitative PCR of SREBP target genes in Huh7 cells; format: cell-based, human; conditions: peptide 15 μM, IGF1 100 ng/mL 10 h, qPCR, n = 3
Procedure: Figure 1 The Insig1/2 loop 1 peptide binds to S90‐phosphorylated PCK1 and blocks PCK1‐mediated SREBP activation and tumor cell proliferation. Immunoblotting analyses were performed using the indicated antibodies; representative results from three independent experiments are shown (IP, immunoprecipitation; WB, western blot). a) Huh7 cells expressing various Insig1 (top) or Insig2 (bottom) truncation mutants were treated with or without IGF1 (100 ng mL^−1) for 1 h. b,c) Biolayer interferometry assays (Sartorius Octet) were employed to measure the binding affinity of Insig1/2 loop 1 peptide to GST‐PCK1 or GST‐PCK1 pS90 proteins. Data represent three independent experiments. d) Flag‐PCK1‐expressing Huh7 cells were pretreated with Insig1/2 loop 1 peptide (15 µM) for 1 h before IGF1 (100 ng mL^−1) stimulation. e) Huh7 cells were pretreated with low (7.5 µM) or high (15 µM) concentrations of Insig1/2 loop 1 peptide for 1 h before IGF1 (100 ng mL^−1) stimulation. f) Huh7 cells transiently transfected with β‐galactosidase and SRE‐driven luciferase reporter vectors were pretreated with Insig1/2 loop 1 peptide (15 µM) for 1 h, followed by stimulation with or without IGF1 (100 ng mL^−1) for 14 h. SRE luciferase activity was normalized to β‐galactosidase activity. Data represent the mean ± SD (n = 3). Statistical significance was determined by one‐way analysis of variance (ANOVA). g) Following pretreatment with Insig1/2 loop 1 peptide (15 µM) and IGF1 stimulation (100 ng mL^−1, 8 h), Huh7 cells were subjected to immunofluorescence analysis (scale bar: 10 µm). h) Quantitative PCR analysis of SREBP1 target gene GPAM in Huh7 cells pretreated with Insig1/2 loop 1 peptide (15 µM) and stimulated with IGF1 (100 ng mL^−1) for 10 h. Data represent the mean ± SD (n = 3). Statistical significance was determined by one‐way analysis of variance (ANOVA). i) Quantitative PCR analysis of SREBP1 target gene FASN in Huh7 cells pretreated with Insig1/2 loop 1 peptide (15 µM) and stimulated with IGF1 (100 ng mL^−1) for 10 h. Data represent the mean ± SD (n = 3). Statistical significance was determined by one‐way analysis of variance (ANOVA). j) Intracellular triglyceride (TG) content was quantified in Huh7 cells pretreated with Insig1/2 loop 1 peptide (25 µM) and stimulated with IGF1 (100 ng mL^−1) for 24 h. […] Statistical significance was determined by one‐way analysis of variance (ANOVA). k) Cell proliferation was assessed by automated cell counting after 72 h of IGF1 stimulation (100 ng mL^−1) in Huh7 cells pretreated with Insig1/2 loop 1 peptide (25 µM) for 1 h. […] Statistical significance was determined by one‐way analysis of variance (ANOVA). l) FLAG‐Insig1, Flag‐Insig1 S207A or FLAG‐ Insig1 S207D was expressed in Huh7 cells with depletion of Insig1 by expressing Insig1 shRNA. […]

Hep3B cells = assay: Cell proliferation, Hep3B; format: cell-based, human; conditions: peptide 25 μM 1 h, IGF1 100 ng/mL 72 h, automated cell counting, n = 3
Procedure: Cells were seeded in 96‐well plates at a density of 5000 cells per well in 100 µL complete growth medium. Following a 24‐hour incubation period (37 °C, 5% CO2) to permit cell adherence, the culture medium was replaced with fresh low serum contained complete medium containing either Insig1/2 loop1 peptide (0–100 µM concentration range) or PBS. Cells were maintained under these conditions for 72 hours. After treatment, the culture medium was carefully aspirated, and cells were washed twice with 200 µL phosphate‐buffered saline (PBS, pH 7.4). Fixed was performed using 4% paraformaldehyde (100 µL/well) for 15 min at room temperature, followed by three PBS washes (200 µL/well) to remove residual fixative. 0.1% (w/v) crystal violet staining solution was prepared by dissolving crystal violet powder in 10% ethanol, followed by filtration through a 0.22 µm membrane. Each well received 80 µL of staining solution and was incubated for 15 min at room temperature, protected from light. […] Plates were agitated at 200 rpm for 10 min to ensure complete dissolution before measuring absorbance at 582 nm using a microplate reader. […]
g) Cell proliferation was assessed by automated cell counting after 72 h of IGF1 stimulation (100 ng ml⁻¹) in Hep3B cells pretreated with Insig1/2 loop 1 peptide (25 μM) for 1 h.

Sequence: RKKRRQRRRLYPCIDSHLGEPHKFKRE [Insig1/2 loop 1 peptide]
- SREBP2-mediated expression of HMGCS1 [1]: suppressed
- SREBP2-mediated expression of LDLR [1]: suppressed
- expression of FASN [1]: markedly inhibited
- expression of GPAM [1]: markedly inhibited
- IGF1-induced increase in proliferation (Hep3B cells): inhibited
